Legend:
Assay type in all cases: in vivo
[1] = tested on: Galium (catchweed bedstraw, Galium aparine); assay: Test C preemergence; settings: for Plant response rating (scale of 0 to 100), Galium: 31 g ai/ha, 0 is no effect, 100 is complete control; for Plant response rating, Galium: scale 0 to 100, 0 no effect, 100 complete control
Summary of the method: (§1)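 Preemergence: sow in loam-sand soil and treat. Postemergence: grow in peat-moss/vermiculite medium to 2–18 cm (1–4 leaves) and spray. Compound in non-phytotoxic solvent with surfactant; keep in greenhouse 13–15 d; score visually against controls, 0 (none) to 100 (full control).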

[2] = tested on: velvetleaf (Abutilon theophrasti); assay: Test C preemergence; settings: for Plant response rating (scale of 0 to 100), Velvetleaf: 31 g ai/ha, 0 is no effect, 100 is complete control; for Plant response rating, Velvetleaf: scale 0 to 100, 0 no effect, 100 complete control
Summary of the method: as §1

[3] = tested on: ryegrass, Italian (Italian ryegrass, Lolium multiflorum); assay: Test C preemergence; settings: for Plant response rating (scale of 0 to 100), Ryegrass, Italian: 31 g ai/ha, 0 is no effect, 100 is complete control; for Plant response rating, Ryegrass, Italian: scale 0 to 100, 0 no effect, 100 complete control
Summary of the method: as §1

[4] = tested on: wheat (winter wheat, Triticum aestivum); assay: Test C preemergence; settings: for Plant response rating (scale of 0 to 100), Wheat: 31 g ai/ha, 0 is no effect, 100 is complete control; for Plant response rating, Wheat: scale 0 to 100, 0 no effect, 100 complete control
Summary of the method: as §1

[5] = tested on: waterhemp (common waterhemp, Amaranthus rudis); assay: Test C preemergence; settings: for Plant response rating (scale of 0 to 100), Waterhemp: 31 g ai/ha, 0 is no effect, 100 is complete control; for Plant response rating, Waterhemp: scale 0 to 100, 0 no effect, 100 complete control
Summary of the method: as §1

[6] = tested on: crabgrass, large (large crabgrass, Digitaria sanguinalis); assay: Test C preemergence; settings: for Plant response rating (scale of 0 to 100), Crabgrass, Large: 31 g ai/ha, 0 is no effect, 100 is complete control; for Plant response rating, Crabgrass, Large: scale 0 to 100, 0 no effect, 100 complete control
Summary of the method: as §1

[7] = tested on: ragweed (common ragweed, Ambrosia elatior); assay: Test C preemergence; settings: for Plant response rating (scale of 0 to 100), Ragweed: 31 g ai/ha, 0 is no effect, 100 is complete control; for Plant response rating, Ragweed: scale 0 to 100, 0 no effect, 100 complete control
Summary of the method: as §1

soybean (Glycine max) = assay: Test C preemergence; settings: for Plant response rating (scale of 0 to 100), Soybean: 31 g ai/ha, 0 is no effect, 100 is complete control; for Plant response rating, Soybean: scale 0 to 100, 0 no effect, 100 complete control
Summary of the method: as §1

[8] = tested on: rice flatsedge (Cyperus iria); assay: Test F flooded paddy test; set-up: key: 0 = no effect, 100 = complete control; settings: Flood
Text: (§2) Plant species in the flooded paddy test consisted of one stand of 9 or 10 water seeded rice seedlings (Rice, W. S. Jap, Oryza sativa cv. ‘Japonica—M202’ or Rice, W. S. Ind, ‘Indica’), and two stands of 3 or 4 transplanted rice seedlings (Oryza sativa cv. ‘Japonica—M202’), Monochoria (Monochoria vaginalis), sedge, umbrella (small-flower umbrella sedge, Cyperus difformis), hardstem bulrush (Scirpus juncoides), redstem (purple redstem, Ammannia coccinea), rice flatsedge (Cyperus iria), bearded sprangletop (Leptochloa fascicularis), barnyardgrass (Echinochloa crus-galli), waterplantain (common waterplantain, Alisma plantago-aquatica), and late watergrass (Echinochloa oryzicola) grown to the 2 to 2.5 leaf stage for testing. Potted plants were grown in a greenhouse with day/night temperature settings of 30/27° C., and supplemental balanced lighting was provided to maintain a 16-hour photoperiod. At time of treatment, test pots were flooded to 3 cm above the soil surface, treated by application of test compounds directly to the paddy water, and then maintained at that water depth for the duration of the test. Effects of treatments on rice and weeds were visually evaluated by comparison to untreated controls after 21 d. Plant response ratings, summarized in Table F, are based on a scale of 0 to 100 where 0 is no effect and 100 is complete control. A dash (-) response means no test result.

[9] = tested on: bearded sprangletop (Leptochloa fascicularis); assay: Test F flooded paddy test; set-up: key: 0 = no effect, 100 = complete control; settings: Flood
Text: as §2

[10] = tested on: barnyardgrass (Echinochloa crus-galli); assay: Test F flooded paddy test; set-up: key: 0 = no effect, 100 = complete control; settings: Flood
Text: as §2

[11] = tested on: transplanted rice seedlings (Oryza sativa cv. ‘Japonica—M202’); assay: Test F flooded paddy test; set-up: key: 0 = no effect, 100 = complete control; settings: Flood
Text: as §2

[12] = tested on: Monochoria (Monochoria vaginalis); assay: Test F flooded paddy test; set-up: key: 0 = no effect, 100 = complete control; settings: Flood
Text: as §2

[13] = tested on: sedge, umbrella (small-flower umbrella sedge, Cyperus difformis); assay: Test F flooded paddy test; set-up: key: 0 = no effect, 100 = complete control; settings: Flood
Text: as §2

[14] = tested on: late watergrass (Echinochloa oryzicola); assay: Test F flooded paddy test; set-up: key: 0 = no effect, 100 = complete control; settings: Flood
Text: as §2

Compound: CN1C[C@H](c2ccc(C(F)(F)F)cc2)[C@@H](C(=O)Nc2ccccc2F)C1=O [Compound 622, (3S,4S)—N-(2-fluorophenyl)-1-methyl-2-oxo-4-[4-(trifluoromethyl)phenyl]-3-pyrrolidinecarboxamide]
- Plant response rating (scale of 0 to 100), Galium [1]: 80
- Plant response rating, Galium ([1]; 62 g ai/ha): 90
- Plant response rating, Galium ([1]; 125 g ai/ha): 90
- Plant response rating, Galium ([1]; 250 g ai/ha): 90
- Plant response rating (scale of 0 to 100), Velvetleaf [2]: 0
- Plant response rating, Velvetleaf ([2]; 62 g ai/ha): 25
- Plant response rating, Velvetleaf ([2]; 125 g ai/ha): 70
- Plant response rating, Velvetleaf ([2]; 250 g ai/ha): 70
- Plant response rating (scale of 0 to 100), Ryegrass, Italian [3]: 25
- Plant response rating, Ryegrass, Italian ([3]; 62 g ai/ha): 50
- Plant response rating, Ryegrass, Italian ([3]; 125 g ai/ha): 35
- Plant response rating, Ryegrass, Italian ([3]; 250 g ai/ha): 70
- Plant response rating (scale of 0 to 100), Wheat [4]: 30
- Plant response rating, Wheat ([4]; 62 g ai/ha): 40
- Plant response rating, Wheat ([4]; 125 g ai/ha): 70
- Plant response rating, Wheat ([4]; 250 g ai/ha): 80
- Plant response rating (scale of 0 to 100), Waterhemp [5]: 75
- Plant response rating, Waterhemp ([5]; 62 g ai/ha): 85
- Plant response rating, Waterhemp ([5]; 125 g ai/ha): 90
- Plant response rating, Waterhemp ([5]; 250 g ai/ha): 90
- Plant response rating (scale of 0 to 100), Crabgrass, Large [6]: 100
- Plant response rating, Crabgrass, Large ([6]; 62 g ai/ha): 95
- Plant response rating, Crabgrass, Large ([6]; 125 g ai/ha): 100
- Plant response rating, Crabgrass, Large ([6]; 250 g ai/ha): 100
- Plant response rating (scale of 0 to 100), Ragweed [7]: 45
- Plant response rating, Ragweed ([7]; 62 g ai/ha): 70
- Plant response rating, Ragweed ([7]; 125 g ai/ha): 85
- Plant response rating, Ragweed ([7]; 250 g ai/ha): 85
- Plant response rating (scale of 0 to 100), Soybean (soybean (Glycine max)): 0
- Plant response rating, Soybean (soybean (Glycine max); 62 g ai/ha): 20
- Plant response rating, Soybean (soybean (Glycine max); 125 g ai/ha): 85
- Plant response rating, Soybean (soybean (Glycine max); 250 g ai/ha): 45

Compound: CN1C[C@H](c2ccc(F)c(F)c2)[C@@H](C(=O)Nc2cccc(F)c2F)C1=O [Compound 639, (3S,4S)—N-(2,3-difluorophenyl)-4-(3,4-difluorophenyl)-1-methyl-2-oxo-3-pyrrolidinecarboxamide]
- Plant response rating: Flatsedge, Rice ([8]; 32 g ai/ha): 0
- Plant response rating: Flatsedge, Rice ([8]; 64 g ai/ha): 0
- Plant response rating: Flatsedge, Rice ([8]; 125 g ai/ha): 0
- Plant response rating: Flatsedge, Rice ([8]; 250 g ai/ha): 0
- Plant response rating: Sprangletop, Brdd. ([9]; 32 g ai/ha): 85
- Plant response rating: Sprangletop, Brdd. ([9]; 64 g ai/ha): 85
- Plant response rating: Sprangletop, Brdd. ([9]; 125 g ai/ha): 95
- Plant response rating: Sprangletop, Brdd. ([9]; 250 g ai/ha): 98
- Plant response rating: Barnyardgrass ([10]; 32 g ai/ha): 90
- Plant response rating: Barnyardgrass ([10]; 64 g ai/ha): 100
- Plant response rating: Barnyardgrass ([10]; 125 g ai/ha): 100
- Plant response rating: Barnyardgrass ([10]; 250 g ai/ha): 100
- Plant response rating: Rice, Transplanted ([11]; 32 g ai/ha): 0
- Plant response rating: Rice, Transplanted ([11]; 64 g ai/ha): 15
- Plant response rating: Rice, Transplanted ([11]; 125 g ai/ha): 25
- Plant response rating: Rice, Transplanted ([11]; 250 g ai/ha): 40
- Plant response rating: Monochoria ([12]; 32 g ai/ha): 65
- Plant response rating: Monochoria ([12]; 64 g ai/ha): 98
- Plant response rating: Monochoria ([12]; 125 g ai/ha): 100
- Plant response rating: Monochoria ([12]; 250 g ai/ha): 100
- Plant response rating: Sedge, Umbrella ([13]; 32 g ai/ha): 0
- Plant response rating: Sedge, Umbrella ([13]; 64 g ai/ha): 0
- Plant response rating: Sedge, Umbrella ([13]; 125 g ai/ha): 0
- Plant response rating: Sedge, Umbrella ([13]; 250 g ai/ha): 0
- Plant response rating: Watergrass, Late ([14]; 32 g ai/ha): 100
- Plant response rating: Watergrass, Late ([14]; 64 g ai/ha): 100
- Plant response rating: Watergrass, Late ([14]; 125 g ai/ha): 100
- Plant response rating: Watergrass, Late ([14]; 250 g ai/ha): 100
- Plant response rating (scale of 0 to 100), Galium [1]: 85
- Plant response rating, Galium ([1]; 62 g ai/ha): 80
- Plant response rating, Galium ([1]; 125 g ai/ha): 85
- Plant response rating, Galium ([1]; 250 g ai/ha): 95
- Plant response rating (scale of 0 to 100), Velvetleaf [2]: 0
- Plant response rating, Velvetleaf ([2]; 62 g ai/ha): 30
- Plant response rating, Velvetleaf ([2]; 125 g ai/ha): 65
- Plant response rating, Velvetleaf ([2]; 250 g ai/ha): 55
- Plant response rating (scale of 0 to 100), Ryegrass, Italian [3]: 25
- Plant response rating, Ryegrass, Italian ([3]; 62 g ai/ha): 60
- Plant response rating, Ryegrass, Italian ([3]; 125 g ai/ha): 60
- Plant response rating, Ryegrass, Italian ([3]; 250 g ai/ha): 70
- Plant response rating (scale of 0 to 100), Wheat [4]: 0
- Plant response rating, Wheat ([4]; 62 g ai/ha): 65
- Plant response rating, Wheat ([4]; 125 g ai/ha): 80
- Plant response rating, Wheat ([4]; 250 g ai/ha): 85
- Plant response rating (scale of 0 to 100), Waterhemp [5]: 50
- Plant response rating, Waterhemp ([5]; 62 g ai/ha): 65
- Plant response rating, Waterhemp ([5]; 125 g ai/ha): 75
- Plant response rating, Waterhemp ([5]; 250 g ai/ha): 80
- Plant response rating (scale of 0 to 100), Crabgrass, Large [6]: 98
- Plant response rating, Crabgrass, Large ([6]; 62 g ai/ha): 98
- Plant response rating, Crabgrass, Large ([6]; 125 g ai/ha): 100
- Plant response rating, Crabgrass, Large ([6]; 250 g ai/ha): 100
- Plant response rating (scale of 0 to 100), Ragweed [7]: 5
- Plant response rating, Ragweed ([7]; 62 g ai/ha): 60
- Plant response rating, Ragweed ([7]; 125 g ai/ha): 75
- Plant response rating, Ragweed ([7]; 250 g ai/ha): 80
- Plant response rating (scale of 0 to 100), Soybean (soybean (Glycine max)): 0
- Plant response rating, Soybean (soybean (Glycine max); 62 g ai/ha): 0
- Plant response rating, Soybean (soybean (Glycine max); 125 g ai/ha): 10
- Plant response rating, Soybean (soybean (Glycine max); 250 g ai/ha): 20
